Results taken from patent publication US20250114338A1, “TETRAHYDRO-PYRIDO[3,4-b]INDOLE ESTROGEN RECEPTOR MODULATORS AND USES THEREOF” (Genentech, Inc., priority 2014, published 2025).
pEC50: −log10 of the molar value.

Test system: ER-alpha MCF7
Assay: ER-alpha MCF7 HCS EC50; stated as measured by in vitro cell proliferation assays of Examples 902 and 903
Format: cell-based
Conditions: Homo sapiens, MCF7, MCF7 cells; Table 2
In short: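 MCF7 cells seeded 1000-2000 cells/well for 16 h, then treated with nine-point 1:2 DMSO dilution series in quadruplicate at 37 °C, 5% CO2 for 4 days. Viable cells quantified by CellTiter-Glo ATP luminescence; EC50 calculated. Controls: fulvestrant at final 100 nM, DMSO 0.2% v/v.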

Compound | pEC50
C[C@H]1Cc2c([nH]c3c(F)cccc23)[C@H](c2c(F)cc(NC3CN(CCCF)C3)cc2F)N1CC(F)(F)F [Example 409, N-(3,5-difluoro-4-((1S,3S)-8-fluoro-3-methyl-2-(2,2,2-trifluoroethyl)-2,3,4,9-tetrahydro-1H-pyrido[3,4-b]indol-1-yl)phenyl)-1-(3-fluoropropyl)azetidin-3-amine] | 7.59
C[C@@H]1Cc2c([nH]c3c(F)cccc23)[C@@H](c2c(F)cc(NC3CN(CCCF)C3)cc2F)N1CC(F)(F)F [Example 410, N-(3,5-difluoro-4-((1R,3R)-8-fluoro-3-methyl-2-(2,2,2-trifluoroethyl)-2,3,4,9-tetrahydro-1H-pyrido[3,4-b]indol-1-yl)phenyl)-1-(3-fluoropropyl)azetidin-3-amine] | 9.92
C[C@@H]1Cc2c([nH]c3ccccc23)[C@@H](c2c(F)cc(OC3CN(CCCF)C3)cc2F)N1CC1(F)COC1 [Example 411, (1R,3R)-1-(2,6-difluoro-4-(1-(3-fluoropropyl)azetidin-3-yloxy)phenyl)-2-((3-fluorooxetan-3-yl)methyl)-3-methyl-2,3,4,9-tetrahydro-1H-pyrido[3,4-b]indole] | 10.15
C[C@H]1Cc2c([nH]c3cc(F)ccc23)[C@H](c2c(F)cc(NC3CN(CCCF)C3)cc2F)N1C[C@](C)(F)CO [Example 412, (S)-3-((1S,3S)-1-(2,6-difluoro-4-((1-(3-fluoropropyl)azetidin-3-yl)amino)phenyl)-7-fluoro-3-methyl-3,4-dihydro-1H-pyrido[3,4-b]indol-2(9H)-yl)-2-fluoro-2-methylpropan-1-ol] | 8.89
C[C@@H]1Cc2c([nH]c3cc(F)ccc23)[C@@H](c2c(F)cc(NC3CN(CCCF)C3)cc2F)N1C[C@@](C)(F)CO [Example 413, (R)-3-((1R,3R)-1-(2,6-difluoro-4-((1-(3-fluoropropyl)azetidin-3-yl)amino)phenyl)-7-fluoro-3-methyl-3,4-dihydro-1H-pyrido[3,4-b]indol-2(9H)-yl)-2-fluoro-2-methylpropan-1-ol] | 10.74
C[C@@H]1Cc2c([nH]c3cc(F)ccc23)[C@@H](c2c(F)cc(NC3CN(CCCF)C3)cc2F)N1C[C@](C)(F)CO [Example 414, (S)-3-((1R,3R)-1-(2,6-difluoro-4-((1-(3-fluoropropyl)azetidin-3-yl)amino)phenyl)-7-fluoro-3-methyl-3,4-dihydro-1H-pyrido[3,4-b]indol-2(9H)-yl)-2-fluoro-2-methylpropan-1-ol] | 9.92
C[C@H]1Cc2c([nH]c3cc(F)ccc23)[C@H](c2c(F)cc(NC3CN(CCCF)C3)cc2F)N1C[C@@](C)(F)CO [Example 415, (R)-3-((1S,3S)-1-(2,6-difluoro-4-((1-(3-fluoropropyl)azetidin-3-yl)amino)phenyl)-7-fluoro-3-methyl-3,4-dihydro-1H-pyrido[3,4-b]indol-2(9H)-yl)-2-fluoro-2-methylpropan-1-ol] | 8.02
C[C@@H]1Cc2c([nH]c3cccc(F)c23)[C@@H](c2c(F)cc(NC3CN(CCCF)C3)cc2F)N1CC(F)(F)CO [Example 416, 3-((1R,3R)-1-(2,6-difluoro-4-((1-(3-fluoropropyl)azetidin-3-yl)amino)phenyl)-5-fluoro-3-methyl-3,4-dihydro-1H-pyrido[3,4-b]indol-2(9H)-yl)-2,2-difluoropropan-1-ol] | 10.62
C[C@H]1Cc2c([nH]c3cccc(F)c23)[C@H](c2c(F)cc(NC3CN(CCCF)C3)cc2F)N1CC(F)(F)CO [Example 417, 3-((1S,3S)-1-(2,6-difluoro-4-((1-(3-fluoropropyl)azetidin-3-yl)amino)phenyl)-5-fluoro-3-methyl-3,4-dihydro-1H-pyrido[3,4-b]indol-2(9H)-yl)-2,2-difluoropropan-1-ol] | 8.48
C[C@@H]1Cc2c([nH]c3ccccc23)[C@@H](c2c(F)cc(NC3CN(CCCF)C3)cc2F)N1C[C@@](F)(C#N)CO [Example 418, (R)-3-((1R,3R)-1-(2,6-difluoro-4-((1-(3-fluoropropyl)azetidin-3-yl)amino)phenyl)-3-methyl-3,4-dihydro-1H-pyrido[3,4-b]indol-2(9H)-yl)-2-fluoro-2-(hydroxymethyl) propanenitrile] | 10.48
C[C@@H]1Cc2c([nH]c3ccccc23)[C@@H](c2c(F)cc(NC3CN(CCCF)C3)cc2F)N1C[C@](F)(C#N)CO [Example 419, (S)-3-((1R,3R)-1-(2,6-difluoro-4-((1-(3-fluoropropyl)azetidin-3-yl)amino)phenyl)-3-methyl-3,4-dihydro-1H-pyrido[3,4-b]indol-2(9H)-yl)-2-fluoro-2-(hydroxymethyl) propanenitrile] | 10.59
CC1(C)Cc2c([nH]c3ccccc23)[C@@H](c2c(F)cc(NC3CN(CCCF)C3)cc2F)N1CC(F)(F)CO [Example 420, (R)-3-(1-(2,6-difluoro-4-((1-(3-fluoropropyl)azetidin-3-yl)amino)phenyl)-3,3-dimethyl-3,4-dihydro-1H-pyrido[3,4-b]indol-2(9H)-yl)-2,2-difluoropropan-1-ol] | 9.93
CC1(C)Cc2c([nH]c3ccccc23)[C@H](c2c(F)cc(NC3CN(CCCF)C3)cc2F)N1CC(F)(F)CO [Example 421, (S)-3-(1-(2,6-difluoro-4-((1-(3-fluoropropyl)azetidin-3-yl)amino)phenyl)-3,3-dimethyl-3,4-dihydro-1H-pyrido[3,4-b]indol-2(9H)-yl)-2,2-difluoropropan-1-ol] | 9.84
C[C@H]1Cc2c([nH]c3c(F)cccc23)[C@H](c2c(F)cc(NC3CN(CCCF)C3)cc2F)N1CC(F)(F)CO [Example 422, 3-((1S,3S)-1-(2,6-difluoro-4-((1-(3-fluoropropyl)azetidin-3-yl)amino)phenyl)-8-fluoro-3-methyl-3,4-dihydro-1H-pyrido[3,4-b]indol-2(9H)-yl)-2,2-difluoropropan-1-ol] | 7.43
C[C@@H]1Cc2c([nH]c3c(F)cccc23)[C@@H](c2c(F)cc(NC3CN(CCCF)C3)cc2F)N1CC(F)(F)CO [Example 423, 3-((1R,3R)-1-(2,6-difluoro-4-((1-(3-fluoropropyl)azetidin-3-yl)amino)phenyl)-8-fluoro-3-methyl-3,4-dihydro-1H-pyrido[3,4-b]indol-2(9H)-yl)-2,2-difluoropropan-1-ol] | 10.05
C[C@@H]1Cc2c([nH]c3c(F)cc(F)cc23)[C@@H](c2c(F)cc(OC3CN(CCCF)C3)cc2F)N1CC(C)(C)F [Example 424, (1R,3R)-1-(2,6-difluoro-4-(1-(3-fluoropropyl)azetidin-3-yloxy)phenyl)-6,8-difluoro-2-(2-fluoro-2-methylpropyl)-3-methyl-2,3,4,9-tetrahydro-1H-pyrido[3,4-b]indole] | 9.30
C[C@@H]1Cc2c([nH]c3cc(F)ccc23)[C@@H](c2c(F)cc(NC3CN(CCCF)C3)cc2F)N1CC(F)(F)CO [Example 425, 3-((1R,3R)-1-(2,6-difluoro-4-((1-(3-fluoropropyl)azetidin-3-yl)amino)phenyl)-7-fluoro-3-methyl-3,4-dihydro-1H-pyrido[3,4-b]indol-2(9H)-yl)-2,2-difluoropropan-1-ol] | 10.68
C[C@H]1Cc2c([nH]c3cc(F)ccc23)[C@H](c2c(F)cc(NC3CN(CCCF)C3)cc2F)N1CC(F)(F)CO [Example 426, 3-((1S,3S)-1-(2,6-difluoro-4-((1-(3-fluoropropyl)azetidin-3-yl)amino)phenyl)-7-fluoro-3-methyl-3,4-dihydro-1H-pyrido[3,4-b]indol-2(9H)-yl)-2,2-difluoropropan-1-ol] | 8.20
C[C@@H]1Cc2c([nH]c3ccccc23)[C@@H](c2c(F)cc(OC3CN(CC4(CF)CC4)C3)cc2F)N1CC(C)(C)F [Example 427, (1R,3R)-1-(2,6-difluoro-4-((1-((1-(fluoromethyl)cyclopropyl)methyl)azetidin-3-yl)oxy)phenyl)-2-(2-fluoro-2-methylpropyl)-3-methyl-2,3,4,9-tetrahydro-1H-pyrido[3,4-b]indole] | 9.56
C[C@@H]1Cc2c([nH]c3cc(F)c(F)cc23)[C@@H](c2c(F)cc(OC3CN(CCCF)C3)cc2F)N1CC(C)(C)F [Example 428, (1R,3R)-1-(2,6-difluoro-4-(1-(3-fluoropropyl)azetidin-3-yloxy)phenyl)-6,7-difluoro-2-(2-fluoro-2-methylpropyl)-3-methyl-2,3,4,9-tetrahydro-1H-pyrido[3,4-b]indole] | 9.15
C[C@@H]1Cc2c([nH]c3ccccc23)[C@@H](c2cnn(CC3CN(CCCF)C3)c2)N1CC(C)(C)F [Example 429, (1R,3R)-2-(2-fluoro-2-methylpropyl)-1-(1-((1-(3-fluoropropyl)azetidin-3-yl)methyl)-1H-pyrazol-4-yl)-3-methyl-2,3,4,9-tetrahydro-1H-pyrido[3,4-b]indole] | 9.00
C[C@@H]1Cc2c([nH]c3ccccc23)[C@@H](c2c(F)cc(NC3CN(CCCF)C3)cc2F)N1CC(F)F [Example 430, N-[4-[(1R,3R)-2-(2,2-difluoroethyl)-3-methyl-1,3,4,9-tetrahydropyrido[3,4-b]indol-1-yl]-3,5-difluoro-phenyl]-1-(3-fluoropropyl)azetidin-3-amine] | 10.19
C[C@@H]1Cc2c([nH]c3ccc(F)cc23)[C@@H](c2c(F)cc(NC3CN(CCCF)C3)cc2F)N1C[C@@](C)(F)CO [Example 431, (R)-3-((1R,3R)-1-(2,6-difluoro-4-((1-(3-fluoropropyl)azetidin-3-yl)amino)phenyl)-6-fluoro-3-methyl-1,3,4,9-tetrahydro-2H-pyrido[3,4-b]indol-2-yl)-2-fluoro-2-methylpropan-1-ol] | 10.03
C[C@H]1Cc2c([nH]c3ccc(F)cc23)[C@H](c2c(F)cc(NC3CN(CCCF)C3)cc2F)N1C[C@](C)(F)CO [Example 432, (S)-3-((1S,3S)-1-(2,6-difluoro-4-((1-(3-fluoropropyl)azetidin-3-yl)amino)phenyl)-6-fluoro-3-methyl-1,3,4,9-tetrahydro-2H-pyrido[3,4-b]indol-2-yl)-2-fluoro-2-methylpropan-1-ol] | 8.49
